# Data published in patent publication US20110166156A1, “Prodrugs for the Treatment of Schizophrenia and Bipolar Disease” (Alkermes, Inc., priority 2010, published 2011).
# Assay: Pharmacokinetic evaluation of paliperidone prodrugs in rats, intramuscular administration (Study 1 and Study 2)
# Type: in vivo, Sprague-Dawley rats
# Conditions: male rats, IM, milled crystalline suspension, plasma by LC-MS/MS; for Cmax: combined Study 1 and Study 2, compared in The FIGURE with the other prodrugs tested; for Tmax: combined Study 1 and Study 2, shown in The FIGURE
# Method: Two PK studies were conducted using intramuscular (IM) administration in rats of water-insoluble paliperidone prodrugs and the results were combined in The FIGURE.
# Animals: 18 Male Sprague-Dawley rats (Charles River Laboratories, Wilmington, Mass.) were used in the study. Three groups of 6 rats were used and are referred to in this study as Groups A, B and C. Rats were approximately 350-375 g at time of arrival. Rats are housed 2 per cage with ad libitum chow and water. Environmental conditions in the housing room: 64-67° F., 30% to 70% relative humidity, and 12:12-h light:dark cycle. All experiments were approved by the institutional animal care and use committee.
# Pharmacokinetics study: Rats were dosed IM by means of a 23 gauge, 1 inch needle with 1 cc syringe 0.3 mL suspension was withdrawn from the vial containing the test compound in suspension. The rat was injected in the muscles of the hind limb after anesthesia with isoflurane. Blood samples were collected via a lateral tail vein after brief anesthesia with Isoflurane. A 27½ G needle and 1 cc syringe without an anticoagulant was used for the blood collection. Approximately 35 0 μL of whole blood was collected at each sampling time point of 6 hours, 24 hours and 2, 5, 7, 9, 12, 14, 21, 28, 35 days after administration. Once collected, whole blood was immediately transferred to tubes containing K2 EDTA, inverted 10-15 times and immediately placed on ice. The tubes were centrifuged for 2 minutes at >14,000 g's (11500 RPMs using Eppendorf Centrifuge 5417C, F45-30-11 rotor) at room temperature to separate plasma. Plasma samples were transferred to labeled plain tubes (MICROTAINER®) and stored frozen at <−70° C.
# (§1) Data Analysis: Drug concentrations in plasma samples were analyzed by liquid chromatography-mass spectroscopy (LC-MS/MS) using appropriate parameters for each compound. Half-life of Paliperidone, maximal concentration (Cmax), time to maximal concentration (Tmax), and AUC were calculated by using WinNonlin version 5.2 software (Pharsight, St. Louis, Mo.).
# Pharmacokinetics study: Rats were dosed IM by means of a 23 gauge, 1 in. needle with 1 cc syringe 0.3 mL suspension was withdrawn from the vial containing the test compound in suspension. The rat was injected in the muscles of the hind limb after anesthesia with isoflurane. Blood samples were collected via a lateral tail vein after brief anesthesia with Isoflurane. […]
# as §1, with “Half-life,” for “Half-life of Paliperidone,”, “concentration,” for “concentration (Cmax),”, “concentration” for “concentration (Tmax),”, “Mo.). […]” for “Mo.).”
structure (smiles),measurement,value
CCCCCCCCCCCCCCCC(=O)OCOC1CCCn2c1nc(C)c(CCN1CCC(c3noc4cc(F)ccc34)CC1)c2=O (stereo not shown) [Compound 157],Cmax,lower than that of the other compounds
same,Tmax,delayed
"CCCCCCCCCCCCCCCC(=O)OC1CCCn2c1nc(C)c(CCN1CCC(c3noc4cc(F)ccc34)CC1)c2=O (stereo not shown) [PP, Paliperidone Palmitate]",Cmax,lower than that of the other compounds
same,Tmax,delayed
